Tests used:
[1] = Metabolic stability in human liver mocrosomes; conditions: liver microsomes
[2] = test system: Respiratory syncytial virus; experiment: Antiviral activity against RSV assessed as inhibition of viral replication by cell based assay; format: functional, organism-based; conditions: human respiratory syncytial virus
[3] = Permeability across human Caco-2 cells
[4] = test system: Respiratory syncytial virus; experiment: Antiviral activity against RSV infected in BALB/c mouse assessed as log reduction in viral titer; format: functional
[5] = Volume of distribution at steady state in rat at 1 mg/kg, iv; conditions: in vivo
[6] = in vivo; conditions: rat, iv, 1 mg/kg
[7] = in vivo; conditions: rat, po, 5 mg/kg
[8] = test system: Respiratory syncytial virus; experiment: Antiviral activity against RSV infected in BALB/c mouse assessed as reduction viral replication by RT-PCR; format: functional
[9] = in vivo; conditions: rat, po, 5 mg/kg; remark: listed apart in the source
[10] = in vivo; conditions: rat, iv, 1 mg/kg; remark: listed apart in the source

## COCCCn1c(CN2C(=O)/C(=N/OC)c3ccccc32)nc2ccccc21
[1]
  half-life: 16 min
[2]
  EC50: 30 nM

## CC(C)(C)O/N=C1/C(=O)N(Cc2nc3ccccc3n2CCCCO)c2ccccc21
[2]
  EC50: 1130 nM

## CS(=O)(=O)CCCn1c(CN2C(=O)/C(=N/OCCF)c3ccncc32)nc2ccccc21
[1]
  half-life: > 100 min
[3]
  Papp: 1 ×10⁻⁶ cm/s
[2]
  EC50: 12.5 nM

## CS(=O)(=O)CCCn1c(CN2C(=O)/C(=N/OCc3ccccn3)c3ccncc32)nc2ccccc21
[1]
  half-life: 21 min
[3]
  Papp: 1.6 ×10⁻⁶ cm/s
[2]
  EC50: 29 nM

## COCCCn1c(CN2C(=O)/C(=N/OCS(=O)(=O)O)c3ccccc32)nc2ccccc21
[2]
  EC50: 46 nM

## C=CCCO/N=C1/C(=O)N(Cc2nc3ccccc3n2CCCOC)c2ccccc21
[2]
  EC50: 260 nM

## C=CCCCO/N=C1/C(=O)N(Cc2nc3ccccc3n2CCCOC)c2ccccc21
[2]
  EC50: 192 nM

## CS(=O)(=O)c1ccc(CO/N=C2/C(=O)N(Cc3nc4ccccc4n3CCCCO)c3ncccc32)cc1
[1]
  half-life: 5.3 min
[3]
  Papp: 7.1 ×10⁻⁶ cm/s
[2]
  EC50: 7.3 nM

## O=C1/C(=N/OCCF)c2ccncc2N1Cc1nc2ccccc2n1CCCCO
[1]
  half-life: 100 min
[3]
  Papp: 5.3 ×10⁻⁶ cm/s
[2]
  EC50: 54.2 nM
[4]
  deltaTCID50: 0.68

## CC(C)CCn1c(CN2C(=O)/C(=N/OCc3ccc(C(=O)N(C)C)cc3)c3ccccc32)nc2ccccc21
[2]
  EC50: 9 nM

## CS(=O)(=O)c1ccc(CO/N=C2/C(=O)N(Cc3nc4ccccc4n3CCCCO)c3ccccc32)cc1
[1]
  half-life: 13 min
[3]
  Papp: 15.2 ×10⁻⁶ cm/s
[2]
  EC50: 12 nM

## COCCCn1c(CN2C(=O)/C(=N/OC(C)C)c3ccccc32)nc2ccccc21
[2]
  EC50: 257 nM

## COCCCn1c(CN2C(=O)/C(=N/OC3CCOCC3)c3ccccc32)nc2ccccc21
[2]
  EC50: 206 nM

## COCCCn1c(CN2C(=O)/C(=N/OCC(N)=O)c3ccccc32)nc2ccccc21
[1]
  half-life: 21 min
[3]
  Papp: 1.5 ×10⁻⁶ cm/s
[2]
  EC50: 154 nM

## COCCCn1c(CN2C(=O)/C(=N/OCCCN3CCCCC3)c3ccccc32)nc2ccccc21
[2]
  EC50: 290 nM

## COCCCn1c(CN2C(=O)/C(=N/OCc3ccncc3)c3ccccc32)nc2ccccc21
[1]
  half-life: 0.6 min
[3]
  Papp: 21.4 ×10⁻⁶ cm/s
[2]
  EC50: 242 nM

## CO/N=C1/C(=O)N(Cc2nc3ccccc3n2CCCCF)c2cnccc21
[1]
  half-life: 26 min
[3]
  Papp: 12.8 ×10⁻⁶ cm/s
[2]
  EC50: 106 nM

## CC(=O)OCCCCn1c(CN2C(=O)/C(=N/OCc3ccc(S(C)(=O)=O)cc3)c3ccccc32)nc2ccccc21
[2]
  EC50: 5 nM

## COCCCn1c(CN2C(=O)/C(=N/OCC(O)CC#N)c3ccccc32)nc2ccccc21 (centres undefined)
[2]
  EC50: 65 nM

## CCO/N=C1/C(=O)N(Cc2nc3ccccc3n2CCCOC)c2ccccc21
[2]
  EC50: 59 nM

## N#CCCCn1c(CN2C(=O)/C(=N/OCC(N)=O)c3ccccc32)nc2ccccc21
[3]
  Papp: 3 ×10⁻⁶ cm/s
[2]
  EC50: 45 nM

## CCCO/N=C1/C(=O)N(Cc2nc3ccccc3n2CCCOC)c2ccccc21
[2]
  EC50: 147 nM

## C=CCO/N=C1/C(=O)N(Cc2nc3ccccc3n2CCCS(C)(=O)=O)c2cnccc21
[2]
  EC50: 12.4 nM

## COCCCn1c(CN2C(=O)/C(=[N+](/[O-])C3CCCCC3)c3ccccc32)nc2ccccc21
[2]
  EC50: 285 nM

## COCCCn1c(CN2C(=O)/C(=N/OC3CCCCC3)c3ccccc32)nc2ccccc21
[2]
  EC50: 652 nM

## CC(=O)OCCCCn1c(CN2C(=O)/C(=N/O)c3cccnc32)nc2ccccc21
[1]
  half-life: 1.3 min
[3]
  Papp: 1.2 ×10⁻⁶ cm/s
[2]
  EC50: 49.7 nM

## C=CCO/N=C1/C(=O)N(Cc2nc3ccccc3n2CCCOC)c2ccccc21
[2]
  EC50: 428 nM

## COCCCn1c(CN2C(=O)/C(=N/OCCCCOC(C)=O)c3ccccc32)nc2ccccc21
[2]
  EC50: 62 nM

## COCCCn1c(CN2C(=O)/C(=N/OCCN(C)C)c3ccccc32)nc2ccccc21
[2]
  EC50: 370 nM

## CO/N=C1/C(=O)N(Cc2nc3ccccc3n2CCCCO)c2cnccc21
[1]
  half-life: 84 min
[3]
  Papp: 9.8 ×10⁻⁶ cm/s
[2]
  EC50: 30.9 nM

## COCCCn1c(CN2C(=O)/C(=N/OCCCC#N)c3ccccc32)nc2ccccc21
[2]
  EC50: 79 nM

## CC(=O)OCCCCn1c(CN2C(=O)/C(=N/OCCF)c3cccnc32)nc2ccccc21
[2]
  EC50: 54.6 nM

## COCCCn1c(CN2C(=O)/C(=N/OCCN3CCCCC3)c3ccccc32)nc2ccccc21
[2]
  EC50: 682 nM

## COCCCn1c(CN2C(=O)/C(=N/OCc3ccccn3)c3ccccc32)nc2ccccc21
[2]
  EC50: 238 nM

## CC(C)CCn1c(CN2C(=O)/C(=N/Oc3ccccc3)c3ccccc32)nc2ccccc21
[2]
  EC50: 375 nM

## CC(C)CCn1c(CN2C(=O)/C(=N/OCc3ccc(C(=O)O)cc3)c3ccccc32)nc2ccccc21
[2]
  EC50: 16 nM

## CN(C)CCn1c(CN2C(=O)/C(=N/OCc3ccc(C(=O)O)cc3)c3ccccc32)nc2ccccc21
[2]
  EC50: 16.5 nM

## CCC(CC)/[N+]([O-])=C1\C(=O)N(Cc2nc3ccccc3n2CCCOC)c2ccccc21
[2]
  EC50: 898 nM

## COCCCn1c(CN2C(=O)/C(=N/OCC(=O)O)c3ccccc32)nc2ccccc21
[2]
  EC50: 295 nM

## COCCCn1c(CN2C(=O)/C(=N/OC(CC(O)O)C(O)O)c3ccccc32)nc2ccccc21 (centres undefined)
[2]
  EC50: 19 nM

## CO/N=C1/C(=O)N(Cc2nc3ccccc3n2CCCCOC(C)=O)c2ccccc21
[1]
  half-life: 1.5 min
[2]
  EC50: 30 nM

## COCCCn1c(CN2C(=O)/C(=N/OCC(F)(F)F)c3ccccc32)nc2ccccc21
[1]
  half-life: 3.2 min
[3]
  Papp: 65.2 ×10⁻⁶ cm/s
[2]
  EC50: 2740 nM

## O=C1/C(=N/OCCF)c2ccncc2N1Cc1nc2ccccc2n1CCCCF
[1]
  half-life: 38 min
[3]
  Papp: 15.8 ×10⁻⁶ cm/s
[2]
  EC50: 61.9 nM

## COCCCn1c(CN2C(=O)/C(=N/OCC3CCC3)c3ccccc32)nc2ccccc21
[2]
  EC50: 246 nM

## N#CCCCn1c(CN2C(=O)/C(=N/OCC(F)(F)F)c3cccnc32)nc2ccccc21
[1]
  half-life: 48 min
[3]
  Papp: 18 ×10⁻⁶ cm/s
[2]
  EC50: 112 nM

## COCCCn1c(CN2C(=O)/C(=N/OCc3ccc(C(=O)N(C)C)cc3)c3ccccc32)nc2ccccc21
[3]
  Papp: 23.7 ×10⁻⁶ cm/s
[2]
  EC50: 30 nM

## O=C1/C(=N/O)c2ccncc2N1Cc1nc2ccccc2n1CCCCF
[1]
  half-life: 100 min
[3]
  Papp: 2.7 ×10⁻⁶ cm/s
[2]
  EC50: 17.9 nM

## COC(=O)c1ccc(CO/N=C2/C(=O)N(Cc3nc4ccccc4n3CCN(C)C)c3ccccc32)cc1
[1]
  half-life: 0.6 min
[2]
  EC50: 23 nM

## CC(C)CCn1c(CN2C(=O)/C(=N/Oc3ccc(Br)cc3)c3ccccc32)nc2ccccc21
[2]
  EC50: 705 nM

## C#CCCCO/N=C1/C(=O)N(Cc2nc3ccccc3n2CCCOC)c2ccccc21
[2]
  EC50: 64 nM

## CCCCCO/N=C1/C(=O)N(Cc2nc3ccccc3n2CCCOC)c2ccccc21
[2]
  EC50: 188 nM

## CO/N=C1/C(=O)N(Cc2nc3ccccc3n2CCCC#N)c2ncccc21
[1]
  half-life: 28 min
[3]
  Papp: 16 ×10⁻⁶ cm/s
[2]
  EC50: 92.8 nM

## COCCCn1c(CN2C(=O)/C(=[N+](/[O-])C(C)C)c3ccccc32)nc2ccccc21
[2]
  EC50: 230 nM

## COCCCn1c(CN2C(=O)/C(=N/OCC3CCCO3)c3ccccc32)nc2ccccc21 (centres undefined)
[2]
  EC50: 152 nM

## CS(=O)(=O)CCCn1c(CN2C(=O)/C(=N/OCc3ccc(S(C)(=O)=O)cc3)c3cnccc32)nc2ccccc21
[1]
  half-life: 200 min
[2]
  EC50: 10600 nM

## CO/N=C1/C(=O)N(Cc2nc3ccccc3n2CCCCO)c2ccccc21
[2]
  EC50: 10 nM

## O=C1/C(=N/OCCF)c2cccnc2N1Cc1nc2ccccc2n1CCCCO
[1]
  half-life: 44 min
[3]
  Papp: 11.5 ×10⁻⁶ cm/s
[2]
  EC50: 43.1 nM
[4]
  deltaTCID50: 0.62

## COC(=O)c1ccc(CO/N=C2/C(=O)N(Cc3nc4ccccc4n3CCC(C)C)c3ccccc32)cc1
[1]
  half-life: 0.6 min
[2]
  EC50: 23 nM

## COCCCn1c(CN2C(=O)/C(=N/OCCF)c3ccccc32)nc2ccccc21
[2]
  EC50: 71 nM

## O=C1/C(=N/OCC(F)(F)F)c2cccnc2N1Cc1nc2ccccc2n1CCCCO
[1]
  half-life: 65 min
[3]
  Papp: 15.4 ×10⁻⁶ cm/s
[2]
  EC50: 79.8 nM

## CO/N=C1/C(=O)N(Cc2nc3ccccc3n2CCC(C)C)c2ccccc21
[2]
  EC50: 87 nM

## N#CCCCn1c(CN2C(=O)/C(=N/O)c3cccnc32)nc2ccccc21
[1]
  half-life: 100 min
[3]
  Papp: 4.2 ×10⁻⁶ cm/s
[2]
  EC50: 22.7 nM

## COC(=O)c1ccc(CO/N=C2/C(=O)N(Cc3nc4ccccc4n3CCNS(C)(=O)=O)c3ccccc32)cc1
[2]
  EC50: 51 nM

## COCCCn1c(CN2C(=O)/C(=N/OCC3CC3)c3ccccc32)nc2ccccc21
[2]
  EC50: 96 nM

## COCCCn1c(CN2C(=O)/C(=N/OCCC3CCCCC3)c3ccccc32)nc2ccccc21
[2]
  EC50: 384 nM

## CCN(CC)C(=O)CO/N=C1/C(=O)N(Cc2nc3ccccc3n2CCCOC)c2ccccc21
[2]
  EC50: 26 nM

## CC(C)CCn1c(CN2C(=O)/C(=N/OCc3ccccc3)c3ccccc32)nc2ccccc21
[2]
  EC50: 202 nM

## N#CCCCn1c(CN2C(=O)/C(=N/OCCF)c3cccnc32)nc2ccccc21
[1]
  half-life: 55 min
[3]
  Papp: 15.5 ×10⁻⁶ cm/s
[2]
  EC50: 57.3 nM

## COCCCn1c(CN2C(=O)/C(=N/OCc3cccnc3)c3ccccc32)nc2ccccc21
[2]
  EC50: 141 nM

## COCCCn1c(CN2C(=O)/C(=N/OCc3ccc(C(=O)OC)cc3)c3ccccc32)nc2ccccc21
[2]
  EC50: 50 nM

## CS(=O)(=O)c1ccc(CO/N=C2/C(=O)N(Cc3nc4ccccc4n3CCCC#N)c3ccncc32)cc1
[1]
  half-life: 29 min
[2]
  EC50: 10200 nM

## CO/N=C1/C(=O)N(Cc2nc3ccccc3n2CCCCO)c2ncccc21
[1]
  half-life: 31 min
[3]
  Papp: 14.1 ×10⁻⁶ cm/s
[2]
  EC50: 31.2 nM

## COCCCn1c(CN2C(=O)/C(=N/OCCCN(C)C)c3ccccc32)nc2ccccc21
[2]
  EC50: 240 nM

## CS(=O)(=O)CCCn1c(CN2C(=O)/C(=N/OCCF)c3cccnc32)nc2ccccc21
[5]
  Vd: 1.8 L/kg
[6]
  half-life: 12 min
[7]
  bioavailability: 14%
[8]
  Ratio: 45
[1]
  half-life: > 100 min
[3]
  Papp: 18.2 ×10⁻⁶ cm/s
[2]
  EC50: 29.2 nM
[9]
  Cmax: 14 ng/mL
[4]
  deltaTCID50: 1.05
[10]
  clearance: 130 mL/min/kg

## CC(C)CCn1c(CN2C(=O)/C(=N/O)c3ccccc32)nc2ccccc21
[2]
  EC50: 10 nM

## N#CCCCn1c(CN2C(=O)/C(=N/OCC(F)(F)F)c3ccccc32)nc2ccccc21
[1]
  half-life: 18 min
[2]
  EC50: 66 nM

## CCCCO/N=C1/C(=O)N(Cc2nc3ccccc3n2CCCOC)c2ccccc21
[2]
  EC50: 261 nM

## COCCCn1c(CN2C(=O)/C(=N/OCCCF)c3ccccc32)nc2ccccc21
[2]
  EC50: 125 nM

## CCC(CC)O/N=C1/C(=O)N(Cc2nc3ccccc3n2CCCOC)c2ccccc21
[2]
  EC50: 935 nM

— ChEMBL document CHEMBL1153463 (Bioorg Med Chem Lett, 2009)
